Here are results for 18 compounds from patent US4663344A, “Anti-inflammatory and analgesic 3-hydroxybenzo[b]thiophene derivatives, compositions, and method of use therefor” (Merck & Co., Inc., priority 1985, dated 1987).

As usually defined, the inhibition is the change of the read-out against control, counted positive when it falls.

This assay addresses T1, RBL Cell 5-Lipoxygenase (Rattus norvegicus, UniProt P12527).
T1 construct: RBL Cell 5-Lipoxygenase; endogenous in cells; host or cells: RBL cells
T1 sequence (P12527 1-673): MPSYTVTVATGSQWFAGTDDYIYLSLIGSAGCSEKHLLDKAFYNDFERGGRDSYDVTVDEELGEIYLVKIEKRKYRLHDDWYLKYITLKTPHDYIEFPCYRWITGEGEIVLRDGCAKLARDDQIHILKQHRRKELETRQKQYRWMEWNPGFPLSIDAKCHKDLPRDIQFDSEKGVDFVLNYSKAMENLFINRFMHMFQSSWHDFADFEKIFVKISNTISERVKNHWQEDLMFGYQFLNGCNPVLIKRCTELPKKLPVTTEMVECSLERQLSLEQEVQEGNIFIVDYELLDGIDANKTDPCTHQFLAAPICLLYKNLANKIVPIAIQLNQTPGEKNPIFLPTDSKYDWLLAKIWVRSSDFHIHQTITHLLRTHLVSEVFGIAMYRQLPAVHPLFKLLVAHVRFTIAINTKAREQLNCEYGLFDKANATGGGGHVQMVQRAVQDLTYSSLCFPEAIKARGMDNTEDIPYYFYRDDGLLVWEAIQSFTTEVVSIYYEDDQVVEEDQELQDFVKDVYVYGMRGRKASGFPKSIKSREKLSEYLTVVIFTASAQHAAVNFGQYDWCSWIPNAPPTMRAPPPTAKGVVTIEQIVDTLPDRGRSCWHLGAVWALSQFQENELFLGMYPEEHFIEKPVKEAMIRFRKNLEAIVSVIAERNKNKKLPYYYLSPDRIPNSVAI
Nature of the assay: Inhibition of RBL Cell 5-Lipoxygenase. The following applies: read-out: Percent Inhibition (conc.). It is filed as biochemical. The text has this: Protocol published in R. W. Egan et al., "Advances in Prostaglandin, Thromboxane, and Leukotriene Research," Vol. 11 (edited by B. Samuelson et al., Raren Press, N.Y., 1983), p. 151.

Structures are written as SMILES.

Turning to `CC(=O)Oc1c(CSc2nc(-c3ccccc3)c(-c3ccccc3)[nH]2)sc2ccccc12` [Example 25, 2-(3-acetoxybenzo[b]thien-2-ylmethyl)thio-4,5-diphenylimidazole], the inhibition at 22 µM turned out to be 52%.

In the case of `CC(=O)Oc1cccc2sc(-c3ccccc3)c(OC(C)=O)c12` [Example 7, 3,4-Diacetoxy-2-Phenylbenzo[b]thiophene], the inhibition at 1 µM is over 95%.

Consider `CCCCc1sc2ccc(Cl)cc2c1OC(C)=O` [Example 1, 3-Acetoxy-2-Butyl-5-Chlorobenzo[b]thiophene], for which the inhibition at 15 µM was over 95%.

As for `Oc1c(-c2ccccc2)sc2ccc(C(F)(F)F)cc12` [Example 4, 3-Hydroxy-2-phenyl-5-trifluoromethylbenzo[b]thiophene], for the setting “5 μM”, the inhibition at 5 µM is over 95%.

For `COc1ccc(-c2sc3ccc(C(F)(F)F)cc3c2O)cc1` [Example 15, 3-Hydroxy-2-(p-methoxyphenyl)-5-trifluoromethylbenzo[b]thiophene], the inhibition at 15 µM is over 95%.

For `Oc1cccc2sc(-c3ccccc3)c(O)c12` [Example 8, 3,4-dihydroxy-2-phenylbenzo[b]thiophene], the inhibition at 15 µM is over 95%.

In the case of `CC(=O)Oc1c(C)sc2ccc(C(F)(F)F)cc12` [Example 23, 2-Methyl-3-Acetoxy-5-trifluoromethylbenzo[b]thiophene], the inhibition at 0.4 µM (0.4 μM) came to 100%.

For the compound `Oc1c(-c2ccccc2)sc2ccc(Cl)cc12` [Example 18, 5-Chloro-3-hydroxy-2-phenylbenzo[b]thiophene], the inhibition at 15 µM was over 95%.

As for `COC(=O)C=Cc1sc2ccccc2c1OC(C)=O` [Example 21, Methyl 3(3-acetoxybenzo[b]thiophen-2-yl)acrylate], under “0.036 μM”, the inhibition at 0.036 µM was found to be 71%.

`CC(=O)Oc1c(Cc2ccccc2)sc2ccc(Cl)cc12` [Example 2, 3-Acetoxy-2-Benzyl-5-Chlorobenzo[b]thiophene]: the inhibition at 15 µM is over 95%.

Regarding `Oc1c(-c2cccc(Cl)c2)sc2ccc(C(F)(F)F)cc12` [Example 12, 3-Hydroxy-2-(m-chlorophenyl)-5-trifluoromethyl-benzo[b]thiophene], the inhibition at 15 µM was over 95%.

For the compound `CC(=O)Oc1c(-c2ccccc2)sc2ccc(C(F)(F)F)cc12` [Example 5, 3-Acetoxy-2-Phenyl-5-Trifluoromethylbenzo[b]thiophene], the inhibition at 15 µM is over 95%.

For `CC(=O)Oc1c(C=C(c2ccccc2)c2ccccc2)sc2ccc(C(F)(F)F)cc12` [Example 27, 2-(2,2-diphenylethenyl)-3-acetoxy-5-trifluoromethyl benzo[b]thiophene], the inhibition at 22 µM is 95%.

For the compound `Oc1c(-c2cccc(C(F)(F)F)c2)sc2ccc(C(F)(F)F)cc12` [Example 11, 3-Hydroxy-5-Trifluoromethyl-2-(m-trifluoromethylphenyl)-Benzo[b]thiophene], the inhibition at 15 µM was over 95%.

Consider `COC(=O)CCc1sc2ccc(C(F)(F)F)cc2c1OC(C)=O` [Example 22], for which, under “0.06 μM”, the inhibition at 0.06 µM was over 95%.

For `COC(=O)C=Cc1sc2ccccc2c1O` [Example 20, Methyl 3-(3-hydroxybenzo[b]thiophen-2-yl)acrylate], the inhibition at 3.6 µM (3.6 μM) was 100%.

With `COc1cccc2sc(-c3ccccc3)c(O)c12` [Example 6, 3-Hydroxy-4-Methoxy-2-Phenylbenzo[b]thiophene], the inhibition at 15 µM was over 95%.

Consider `Cc1cccc(-c2sc3ccc(C(F)(F)F)cc3c2O)c1` [Example 16, 3-Hydroxy-2-(m-methylphenyl)-5-trifluoromethylbenzo[b]thiophene], for which the inhibition at 1 µM was over 95%.
